Holding throughout (assay type): biochemical
Test [1] deals with human inducible NOS (iNOS) (Homo sapiens, UniProt P35228). The test is described as follows: iNOS (Human) enzyme assay, radiometric conversion of [3H]L-arginine to [3H]L-citrulline. The conditions noted are these: recombinant human enzyme, 37° C., 45 min. How it is done: (§1) Recombinant human inducible NOS (iNOS), human endothelial constitutive NOS (eNOS) or human neuronal constitutive NOS(nNOS) were produced in Baculovirus-infected Sf9 cells (ALEXIS). In a radiometric method, NO synthase activity was determined by measuring the conversion of [^3H]L-arginine to [^3H]L-citrulline. To measure iNOS, 10 μL of enzyme was added to 100 μL of 100 mM HEPES, pH=7,4, containing 1 mM CaCl2, 1 mM EDTA, 1 mM dithiotheitol, 1 μM FMN, 1 μM FAD, 10 μM tetrahydrobiopterin, 120 μM NADPH, and 100 nM CaM. To measure eNOS or nNOS, 10 μL of enzyme was added to 100 μL of 40 mM HEPES, pH=7.4, containing 2.4 mM CaCl2, 1 mM MgCl2, 1 mg/mL BSA, 1 mM EDTA, 1 mM dithiothreitol, 1 μM FMN, 1 μM FAD, 10 μM tetrahydrobiopterin, 1 mM NADPH, and 1.2 μM CaM.
(§2) To measure enzyme inhibition, a 15 μL solution of a test substance was added to the enzyme assay solution, followed by a pre-incubation time of 15 min at RT. The reaction was initiated by addition of 20 μL L-arginine containing 0.25 μCi of [^3H]arginine/mL and 24 μM L-arginine. The total volume of the reaction mixture was 150 μL in every well. The reactions were carried out at 37° C. for 45 min. The reaction was stopped by adding 20 μL of ice-cold buffer containing 100 mM HEPES, 3 mM EGTA, 3 mM EDTA, pH=5.5. [^3H]L-citrulline was separated by DOWEX (ion-exchange resin DOWEX 50 W X 8-400, SIGMA) and the DOWEX was removed by spinning at 12,000 g for 10 min in the centrifuge. An 70 μL aliquot of the supernatant was added to 100 μL of scintillation fluid and the samples were counted in a liquid scintillation counter (1450 Microbeta Jet, Wallac). […] All assays were performed at least in duplicate.

Test [2] deals with human endothelial constitutive NOS (eNOS) (Homo sapiens, UniProt P29474). The test is described as follows: eNOS (Human) enzyme assay, radiometric conversion of [3H]L-arginine to [3H]L-citrulline. To be noted: recombinant human enzyme, 37° C., 45 min. Here is the method: as §1, §2
Test [3] concerns the target human neuronal constitutive NOS (nNOS) (Homo sapiens, UniProt P29475). The test is described as follows: nNOS (Human) enzyme assay, radiometric conversion of [3H]L-arginine to [3H]L-citrulline. The conditions noted are these: for Ratio e/n: human eNOS / human nNOS.
Experimental: To measure enzyme inhibition, a 15 μL solution of a test substance was added to the enzyme assay solution, followed by a pre-incubation time of 15 min at RT. […] The total volume of the reaction mixture was 150 μL in every well. The reactions were carried out at 37° C. for 45 min. The reaction was stopped by adding 20 μL of ice-cold buffer containing 100 mM HEPES, 3 mM EGTA, 3 mM EDTA, pH=5.5. [^3H]L-citrulline was separated by DOWEX (ion-exchange resin DOWEX 50 W X 8-400, SIGMA) and the DOWEX was removed by spinning at 12,000 g for 10 min in the centrifuge. […] All assays were performed at least in duplicate. Standard deviations were 10% or less.
[4] abbreviates: recombinant human enzyme, 37° C., 45 min, read-out: Human nNOS.

Read-outs that look alike come from different tables or passages of the source.

The values below come from patent US7989447B2, “1,5 and 3,6-substituted indole compounds having NOS inhibitory activity” (NeurAxon, Inc., priority 2006, dated 2011).

Chain of human neuronal constitutive NOS (nNOS) (P29475 whole entry): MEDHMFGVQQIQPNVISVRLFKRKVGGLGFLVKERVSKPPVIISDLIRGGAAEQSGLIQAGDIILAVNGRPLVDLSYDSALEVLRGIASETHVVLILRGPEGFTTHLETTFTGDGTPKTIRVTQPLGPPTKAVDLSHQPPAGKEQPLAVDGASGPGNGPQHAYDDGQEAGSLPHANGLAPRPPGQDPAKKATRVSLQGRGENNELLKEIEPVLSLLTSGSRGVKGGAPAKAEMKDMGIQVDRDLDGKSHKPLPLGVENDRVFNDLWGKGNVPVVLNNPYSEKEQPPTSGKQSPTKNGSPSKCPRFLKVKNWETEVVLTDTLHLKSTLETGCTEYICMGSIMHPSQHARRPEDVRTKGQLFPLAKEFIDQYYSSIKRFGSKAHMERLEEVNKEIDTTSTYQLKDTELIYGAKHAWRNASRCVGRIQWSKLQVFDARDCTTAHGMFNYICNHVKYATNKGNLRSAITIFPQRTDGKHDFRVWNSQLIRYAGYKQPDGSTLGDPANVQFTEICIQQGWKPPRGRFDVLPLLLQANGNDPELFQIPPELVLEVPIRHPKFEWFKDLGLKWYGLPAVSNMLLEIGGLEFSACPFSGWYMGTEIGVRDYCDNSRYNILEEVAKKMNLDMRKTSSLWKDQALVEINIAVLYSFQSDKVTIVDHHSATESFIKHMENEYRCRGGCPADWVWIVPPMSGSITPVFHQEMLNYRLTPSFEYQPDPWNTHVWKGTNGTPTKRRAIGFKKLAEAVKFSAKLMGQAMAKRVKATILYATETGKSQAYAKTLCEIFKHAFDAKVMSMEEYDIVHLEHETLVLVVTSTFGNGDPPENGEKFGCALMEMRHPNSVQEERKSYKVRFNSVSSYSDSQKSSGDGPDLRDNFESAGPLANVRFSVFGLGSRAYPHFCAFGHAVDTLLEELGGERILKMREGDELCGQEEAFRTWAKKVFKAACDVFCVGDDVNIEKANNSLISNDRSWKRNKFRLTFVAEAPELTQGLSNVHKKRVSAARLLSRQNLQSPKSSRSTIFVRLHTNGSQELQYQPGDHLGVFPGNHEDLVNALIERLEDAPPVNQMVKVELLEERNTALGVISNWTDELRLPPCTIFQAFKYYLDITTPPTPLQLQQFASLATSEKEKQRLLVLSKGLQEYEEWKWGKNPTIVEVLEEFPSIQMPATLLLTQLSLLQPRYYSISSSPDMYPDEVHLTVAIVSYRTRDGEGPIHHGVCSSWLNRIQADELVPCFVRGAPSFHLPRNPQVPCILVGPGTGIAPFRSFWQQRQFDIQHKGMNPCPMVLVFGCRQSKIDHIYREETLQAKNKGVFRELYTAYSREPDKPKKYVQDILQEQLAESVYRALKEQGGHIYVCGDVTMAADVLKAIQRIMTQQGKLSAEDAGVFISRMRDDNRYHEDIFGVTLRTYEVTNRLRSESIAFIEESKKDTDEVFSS

As to `CN1CCCC(n2ccc3cc(NC(=N)c4ccco4)ccc32)CC1` (single isomer, unassigned) [(+)−55], the IC50 in test [1] was determined as 10 µM; in test [2] (read-out: Human eNOS), 24.5 µM.
Taken in the same sequence, the figures for `CN1CCCC1CCn1ccc2cc(NC(=N)c3cccs3)ccc21` (single isomer, unassigned) [(+)−57] were 22 µM and 3.37 µM.
Taken in the same sequence, the figures for `CN1CCCC(n2ccc3cc(NC(=N)c4ccco4)ccc32)CC1` (single isomer, unassigned) [(−)−55] were 46 µM and 28.5 µM.
For the compound `CN1CCCC1CCn1ccc2cc(NC(=N)c3cccs3)ccc21` (single isomer, unassigned) [(−)−57], the IC50 in test [1] came out at 1.7 µM; in test [2] (read-out: Human eNOS), 1.92 µM.
Consider `CCN(CC)CCn1c(Cc2ccc(OC(F)(F)F)cc2)cc2cc(NC(=N)c3cccs3)ccc21` [Compound 11, N-(1-(2-(Diethylamino)ethyl)-2-(4-(trifluoromethoxy)benzyl)-1H-indol-5-yl)thiophene-2-carboximidamide], for which the Ratio e/n in test [3] was determined as 5.62. The IC50 in test [3] (setting [4]) was found to be 0.8 µM; in test [1] it was 17 µM; in test [2] (Human eNOS (μM)), 4.5 µM.
As for `CN1CCCC1CCn1c(Cc2ccc(OC(F)(F)F)cc2)cc2cc(NC(=N)c3cccs3)ccc21` (stereo not drawn) [Compound 14, N-(1-(2-(1-methylpyrrolidin-2-yl)ethyl)-2-(4-(trifluoromethoxy)benzyl)-1H-indol-5-yl)thiophene-2-carboximidamide], in test [3], the Ratio e/n stood at 4.90. Further, the results for the IC50 in test [3] (setting [4]), in test [1] and in test [2] (read-out: Human eNOS) were 0.31 µM, 93 µM and 1.52 µM, respectively.
`CN1CCCC1CCn1c(-c2ccc([N+](=O)[O-])cc2)cc2cc(NC(=N)c3cccs3)ccc21` (stereo not drawn) [Compound 21, N-(1-(2-(1-methylpyrrolidin-2-yl)ethyl)-2-(4-nitrophenyl)-1H-indol-5-yl)thiophene-2-carboximidamide]: the IC50 in test [3] (setting [4]) stood at 1.28 µM; in test [1] it was 52 µM; in test [2] (read-out: Human eNOS), 13.2 µM.
Turning to `CN1CCCC(n2ccc3cc(NC(=N)c4ccco4)ccc32)CC1` (stereo not drawn) [Compound 54, N-(1-(1-methylazepan-4-yl)-1H-indol-5-yl)furan-2-carboximidamide], the values for the IC50 in test [1] and in test [2] (read-out: Human eNOS) were 49 µM and 38.5 µM, respectively.
As to `CN1CCCC(n2ccc3cc(NC(=N)c4cccs4)ccc32)CC1` (stereo not drawn) [Compound 58, N-(1-(1-methylazepan-4-yl)-1H-indol-5-yl)thiophene-2-carboximidamide], the Ratio e/n in test [3] was 93.49. The IC50 in test [3] (setting [4]) stood at 0.12 µM; in test [1], 7.6 µM; in test [2] (read-out: Human eNOS), 11.5 µM.
In the case of `CN1CCCC1CCn1ccc2cc(NC(=N)N[N+](=O)[O-])ccc21` (stereo not drawn) [Compound 59, 1-(1-(2-(1-methylpyrrolidin-2-yl)ethyl)-1H-indol-5-yl)-3-nitroguanidine], the Ratio e/n in test [3] worked out at 6.00. Besides, the IC50 is 1.44 µM in test [3] (setting [4]) and 8.65 µM in test [2] (read-out: Human eNOS). The “Human iNOS (μM)” value in test [1] is given as “Not Active”.
For the compound `CN1CCCCC1CCn1ccc2cc(NC(=N)c3cccs3)ccc21` (stereo not drawn) [Compound 62, N-(1-(2-(1-methylpiperidin-2-yl)ethyl)-1H-indol-5-yl)thiophene-2-carboximidamide], the Ratio e/n in test [3] came to 68.01. Further, the values for the IC50 in test [3] (setting [4]) and in test [2] (read-out: Human eNOS) were 0.09 µM and 6.4 µM, respectively.
Turning to `N=C(Nc1ccc2c(ccn2C2CN3CCC2CC3)c1)c1cccs1` (stereo not drawn) [Compound 71, N-(1-(Quinuclidin-3-yl)-1H-indol-5-yl)thiophene-2-carboximidamide], the Ratio e/n in test [3] was 32.79. Also, the IC50 in test [3] (setting [4]) turned out to be 0.36 µM; in test [1] it was 29 µM; in test [2] (read-out: Human eNOS), 12.1 µM.
For the compound `N=C(Nc1ccc2c(ccn2-c2cccnc2)c1)c1cccs1` [Compound 74, N-(1-(pyridin-3-yl)-1H-indol-5-yl)thiophene-2-carboximidamide], the Ratio e/n in test [3] is 6.74. In addition, the IC50 was found to be 0.38 µM in test [3] (setting [4]) and 2.57 µM in test [2] (read-out: Human eNOS).
Taken in the same sequence, the figures for `N=C(Nc1ccc2c(ccn2-c2ccc(N)nc2)c1)c1cccs1` [Compound 77, N-(1-(6-aminopyridin-3-yl)-1H-indol-5-yl)thiophene-2-carboximidamide] were 5.54, 0.55 µM and 3.08 µM.
With `CN1C2CCC1CC(n1ccc3cc(NC(=N)c4cccs4)ccc31)C2` (stereo not drawn) [Compound 86, N-(1-(8-methyl-8-azabicyclo[3.2.1]octan-3-yl)-1H-indol-5-yl)thiophene-2-carboximidamide], in test [3], the Ratio e/n worked out at 24.70. For the same compound, the IC50 in test [3] (setting [4]) is 0.76 µM; in test [1], 11 µM; in test [2] (read-out: Human eNOS), 18.9 µM.
Turning to `N=C(Nc1ccc2c(ccn2C2CCOCC2)c1)c1cccs1` [Compound 90, N-(1-(tetrahydro-2H-pyran-4-yl)-1H-indol-5-yl)thiophene-2-carboximidamide], the Ratio e/n in test [3] stood at 9.34. Moreover, the IC50 in test [3] (setting [4]) came out at 1.04 µM; in test [2] (read-out: Human eNOS), 9.72 µM.
Taken in the same sequence, the figures for `CN(C)CCn1ccc2cc(NC(=N)c3cccs3)ccc21` [Compound 93, N-(1-(2-(dimethylamino)ethyl)-1H-indol-5-yl)thiophene-2-carboximidamide] were 21.3, 0.17 µM and 3.7 µM.
Taken in the same sequence, the figures for `N=C(Nc1ccc2c(ccn2CCN2CCCCC2)c1)c1cccs1` [Compound 96, N-(1-(2-(piperidin-1-yl)ethyl)-1H-indol-5-yl)thiophene-2-carboximidamide] were 53.80, 0.17 µM and 9.2 µM.
Taken in the same sequence, the figures for `CN1CCC[C@H]1Cn1ccc2cc(NC(=N)c3cccs3)ccc21` [Compound 104, (S)—N-(1-((1-methylpyrrolidin-2-yl)methyl)-1H-indol-5-yl)thiophene-2-carboximidamide] were 30.2, 0.11 µM and 3.35 µM.
Turning to `CN1CCC(c2c[nH]c3cc(NC(=N)c4cccs4)ccc23)CC1` [Compound 108, N-[3-(1-methyl-piperidin-4-yl)-1H-indol-6-yl]-thiophene-2-carboxamidine], the Ratio e/n in test [3] was found to be 23.94. The results for the IC50 in test [3] (setting [4]), in test [1] and in test [2] (read-out: Human eNOS) were 0.71 µM, 9.3 µM and 17 µM, respectively.
In the case of `N=C(Nc1ccc2c(C3=CN4CCC3CC4)c[nH]c2c1)c1cccs1` [Compound 111, N-(3-(1-azabicyclo[2.2.2]oct-2-en-3-yl)-1H-indol-6-yl)thiophene-2-carboximidamide], in test [3], the Ratio e/n is 30.19. Also, the results for the IC50 in test [3] (setting [4]) and in test [2] (read-out: Human eNOS) were 1.53 µM and 46.2 µM, respectively.
Consider `N=C(Nc1ccc2c(C3CN4CCC3CC4)c[nH]c2c1)c1cccs1` (stereo not drawn) [Compound 112, N-(3-(quinuclidin-3-yl)-1H-indol-6-yl)thiophene-2-carboximidamide], for which the values for the IC50 in test [3], in test [1] and in test [2] (read-out: Human eNOS) were 1.13 µM, 0.4 µM and 31.4 µM, respectively. Also, the Ratio e/n in test [3] came to 27.78.
On to `CN1CCC(c2c[nH]c3cc(NC(=N)c4cccs4)ccc23)C1` (stereo not drawn) [Compound 117, N-(3-(1-methylpyrrolidin-3-yl)-1H-indol-6-yl) thiophene-2-carboximidamide], for which the Ratio e/n in test [3] amounted to 35.45. For the same compound, the IC50 in test [3] (setting [4]) came to 0.2 µM; in test [2] (read-out: Human eNOS), 7.09 µM.
Taken in the same sequence, the figures for `CNC1CCC(c2c[nH]c3cc(NC(=N)c4cccs4)ccc23)CC1` (stereo not drawn) [Compound 123, N-(3-(4-(methylamino)cyclohexyl)-1H-indol-6-yl)thiophene-2-carboximidamide] were 28.96, 0.32 µM and 9.47 µM.
Taken in the same sequence, the figures for `CNC1CC=C(c2c[nH]c3cc(NC(=N)c4cccs4)ccc23)CC1` (stereo not drawn) [Compound 125, N-(3-(4-(methylamino)cyclohex-1-enyl)-1H-indol-6-yl)thiophene-2-carboximidamide] were 46.4, 0.45 µM and 21 µM.
Taken in the same sequence, the figures for `CCCN[C@H]1CC[C@H](c2c[nH]c3cc(NC(=N)c4cccs4)ccc32)CC1` [Compound 138, N-(3-((1r,4r)-4-(propylamino)cyclohexyl)-1H-indol-6-yl)thiophene-2-carboximidamide] were 15.83, 0.72 µM and 11.4 µM.
As to `CC(C)NC1CCC(c2c[nH]c3cc(NC(=N)c4cccs4)ccc23)CC1` (stereo not drawn) [Compound 142], in test [3], the Ratio e/n was determined as 23.6. For the same compound, the IC50 in test [3] (setting [4]) stood at 0.29 µM; in test [2] (read-out: Human eNOS), 6.99 µM.
